Data from ChEMBL document CHEMBL5518193, “Discovery of N-alkyl-N-benzyl thiazoles as novel TRPC antagonists for the treatment of glioblastoma multiforme” (Eur J Med Chem, 2024).
pIC50: −log10 of the molar value.

What was measured:
[1] = target: T1, Short transient receptor potential channel 3 (Homo sapiens, UniProt Q13507); experiment: Antagonist activity at human TRPC3 stably expressed in HEK293 cells inhibition of calcium influx by calcium fluorescence assay; assay type: cell-based
T1 sequence (Q13507 whole entry): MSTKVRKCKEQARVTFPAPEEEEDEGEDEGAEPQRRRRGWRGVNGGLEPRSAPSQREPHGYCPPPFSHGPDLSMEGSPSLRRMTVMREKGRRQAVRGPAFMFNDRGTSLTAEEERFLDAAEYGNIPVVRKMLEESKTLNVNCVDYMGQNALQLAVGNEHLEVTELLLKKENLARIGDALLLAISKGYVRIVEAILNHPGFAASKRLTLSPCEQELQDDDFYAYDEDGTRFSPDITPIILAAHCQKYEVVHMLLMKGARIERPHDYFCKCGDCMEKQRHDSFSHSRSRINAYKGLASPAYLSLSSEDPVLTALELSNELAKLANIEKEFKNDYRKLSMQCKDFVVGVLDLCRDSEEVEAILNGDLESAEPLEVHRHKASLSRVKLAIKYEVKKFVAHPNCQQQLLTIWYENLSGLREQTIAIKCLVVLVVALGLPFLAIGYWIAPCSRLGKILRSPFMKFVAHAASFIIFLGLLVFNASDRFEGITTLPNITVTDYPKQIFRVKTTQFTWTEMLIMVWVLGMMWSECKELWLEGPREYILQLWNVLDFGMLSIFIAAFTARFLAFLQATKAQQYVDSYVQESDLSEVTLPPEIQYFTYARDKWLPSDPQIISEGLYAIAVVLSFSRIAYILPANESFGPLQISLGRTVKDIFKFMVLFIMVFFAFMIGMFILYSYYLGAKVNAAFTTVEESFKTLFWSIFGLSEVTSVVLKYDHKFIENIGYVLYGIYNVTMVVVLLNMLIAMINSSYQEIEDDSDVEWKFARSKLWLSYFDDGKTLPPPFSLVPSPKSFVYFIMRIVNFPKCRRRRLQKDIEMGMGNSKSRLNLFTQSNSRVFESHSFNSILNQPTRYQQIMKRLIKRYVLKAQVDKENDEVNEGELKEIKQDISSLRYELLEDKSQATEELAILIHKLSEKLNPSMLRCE

MKN-45 = experiment: Antiproliferative activity against human MKN-45 cells assessed as reduction in cell viability incubated for 72 hrs by MTT assay; assay type: functional, cell-based; conditions: MKN-45, 72 h
HCT-116 = experiment: Antiproliferative activity against human HCT-116 cells assessed as reduction in cell viability incubated for 72 hrs by MTT assay; assay type: functional, cell-based; conditions: HCT-116, 72 h
[2] = Tmax in BALB/c mouse at 12.5 mg/kg, ip administered as liposome encapsulated form measured upto 24 hrs by LC-MS/MS analysis; assay type: ADME, organism-based; conditions: in vivo
[3] = Tmax in BALB/c mouse at 50 mg/kg, ip administered as liposome encapsulated form and measured upto 24 hrs by LC-MS/MS analysis; assay type: ADME, organism-based; conditions: in vivo
[4] = Terminal half life in BALB/c mouse at 25 mg/kg, ip administered as liposome encapsulated form and measured upto 24 hrs by LC-MS/MS analysis; assay type: ADME, organism-based; conditions: in vivo, read-out: beta t1/2 (converted)
[5] = Terminal half life in BALB/c mouse at 50 mg/kg, ip administered as liposome encapsulated form and measured upto 24 hrs by LC-MS/MS analysis; assay type: ADME, organism-based; conditions: in vivo, read-out: beta t1/2 (converted)
[6] = AUC (0 to infinity) in BALB/c mouse at 12.5 mg/kg, ip administered as liposome encapsulated form and measured upto 24 hrs by LC-MS/MS analysis; assay type: ADME, organism-based; conditions: in vivo
[7] = AUC (0 to infinity) in BALB/c mouse at 25 mg/kg, ip administered as liposome encapsulated form and measured upto 24 hrs by LC-MS/MS analysis; assay type: ADME, organism-based; conditions: in vivo
[8] = AUC (0 to infinity) in BALB/c mouse at 50 mg/kg, ip administered as liposome encapsulated form and measured upto 24 hrs by LC-MS/MS analysis; assay type: ADME, organism-based; conditions: in vivo
U-87 MG = experiment: Antitumor activity against human U87 cells xenografted in BALB/c nude mouse assessed as tumor growth inhibition at 12.5 mg/kg/day administered as liposome encapsulated form for 15 days and measured every 3 days by vernier caliper; assay type: functional, U-87MG ATCC; conditions: 360 h, time 15 day, read-out: TGI
[9] = Cmax in BALB/c mouse at 12.5 mg/kg, ip administered as liposome encapsulated form and measured upto 24 hrs by LC-MS/MS analysis; assay type: ADME, organism-based; conditions: in vivo
[10] = Cmax in BALB/c mouse at 25 mg/kg, ip administered as liposome encapsulated form and measured upto 24 hrs by LC-MS/MS analysis; assay type: ADME, organism-based; conditions: in vivo
[11] = Cmax in BALB/c mouse at 50 mg/kg, ip administered as liposome encapsulated form and measured upto 24 hrs by LC-MS/MS analysis; assay type: ADME, organism-based; conditions: in vivo
[12] = Selectivity index, ratio of IC50 for human MKN-45 cells to IC50 for human U87 cells; assay type: functional
[13] = Selectivity index, ratio of IC50 for human HCT-116 cells to IC50 for human U87 cells; assay type: functional
[14] = Selectivity index, ratio of IC50 for human A549 cells to IC50 for human U87 cells; assay type: functional

## NCCN(Cc1ccc2ccccc2c1)c1nc(C(=O)Nc2ccc(O)cc2)cs1
[1]
  pIC50: 5.62
MKN-45
  pIC50: 4.96
HCT-116
  pIC50: 5.01
[2]
  Tmax: 4 h
[3]
  Tmax: 4 h
[4]
  half-life: 3.4 h
[5]
  half-life: 3.8 h
[6]
  AUC(0-inf): 2790 ng·h/mL
[7]
  AUC(0-inf): 6920 ng·h/mL
[8]
  AUC(0-inf): 16800 ng·h/mL
U-87 MG
  inhibition in vivo at 12.5 mg/kg/day: 36.3%
[9]
  Cmax: 288 ng/mL
[10]
  Cmax: 1220 ng/mL
[11]
  Cmax: 2910 ng/mL
[12]
  Ratio IC50: 2
[13]
  Ratio IC50: 2
[14]
  Ratio IC50: 2
